Values quoted from earlier work in patent publication US5849729A, “Use of hydrolyzed cocoa butter for percutaneous absorption” (Hershey Foods Corporation, priority 1995, dated 1998).
Where two headings read alike, the source gives them in different places.

Conditions: cited from earlier work
[1] = in vivo, topical or ocular, 120 h

Row | Structure (SMILES) | Total Absorption (T of above) [1] | Absorption Rate 0-12 (in vivo) | Absorption Rate 12-24 (in vivo) | Absorption Rate 24-48 (in vivo) | Absorption Rate 48-72 (in vivo) | Absorption Rate 72-96 (in vivo) | Absorption Rate 96-120 (in vivo) | absorption through the skin of closely related corticosteroid compounds (in vivo, topical or ocular) | Absorption Rate 0-12 (topical, 0-12 hrs) | Total Absorption (T of above) (topical, 0-120 hrs) | Absorption Rate 12-24 (topical, 12-24 hrs) | Absorption Rate 24-48 (topical, 24-48 hrs) | Absorption Rate 48-72 (topical, 48-72 hrs) | Absorption Rate 72-96 (topical, 72-96 hrs) | Absorption Rate 96-120 (topical, 96-120 hrs) | absorption through the skin of closely related corticosteroid compounds (published literature, topical)
1 | CC(=O)[C@H]1CC[C@H]2[C@@H]3CCC4=CC(=O)CC[C@]4(C)[C@H]3CC[C@]12C [Progesterone] | 10.81 % of the dose | .208 % hr | .264 % hr | .135 % hr | .045 % hr | .024 % hr | .011 % hr | – | – | – | – | – | – | – | – | –
2 | CC(=O)OCC(=O)[C@@]1(O)CC[C@H]2[C@@H]3CCC4=CC(=O)CC[C@]4(C)[C@H]3[C@@H](O)C[C@@]21C [Hydrocortisone Acetate] | 2.55 % of the dose | .020 % hr | .089 % hr | .032 % hr | .024 % hr | .015 % hr | .008 % hr | 1-3 % of the dose | – | – | – | – | – | – | – | –
3 | C[C@@H]1C[C@H]2[C@@H]3CCC4=CC(=O)C=C[C@]4(C)[C@@]3(F)[C@@H](O)C[C@]2(C)[C@@]1(O)C(=O)CO [Dexamethasone] | – | – | – | – | – | – | – | – | .005 % hr | .40 % of the dose | .003 % hr | .004 % hr | .003 % hr | .002 % hr | .002 % hr | –
4 | C[C@]12CCC(=O)C=C1CC[C@@H]1[C@@H]2CC[C@]2(C)C(=O)CC[C@@H]12 [Androstenedione] | – | – | – | – | – | – | – | – | .183 % hr | 13.47 % of the dose | .334 % hr | .155 % hr | .076 % hr | .043 % hr | .028 % hr | –
5 | C[C@]12C[C@H](O)[C@H]3[C@@H](CCC4=CC(=O)CC[C@@]43C)[C@@H]1CC[C@@H]2C(=O)CO [Corticosterone] | – | – | – | – | – | – | – | – | .013 % hr | 8.78 % of the dose | .065 % hr | .139 % hr | .070 % hr | .050 % hr | .039 % hr | –
6 | C[C@]12CC[C@@H]3c4ccc(O)cc4CC[C@H]3[C@@H]1CC[C@@H]2O [Estradiol] | 10.62 % of the dose | .008 % hr | .056 % hr | .099 % hr | .101 % hr | .107 % hr | .103 % hr | – | – | – | – | – | – | – | – | –
7 | C[C@]12CC[C@H](O)CC1=CC[C@@H]1[C@@H]2CC[C@]2(C)C(=O)CC[C@@H]12 [Dehydroepiandrosterone] | – | – | – | – | – | – | – | – | .265 % hr | 18.45 % of the dose | .446 % hr | .249 % hr | .091 % hr | .046 % hr | .028 % hr | –
8 | CC(=O)[C@@]1(O)CC[C@H]2[C@@H]3CCC4=CC(=O)CC[C@]4(C)[C@H]3CC[C@@]21C [17-OII Progesterone] | – | – | – | – | – | – | – | – | – | 14.76 % of the dose | – | – | – | – | – | –
9 | CC(=O)O[C@H]1CC[C@H]2[C@@H]3CCC4=CC(=O)CC[C@]4(C)[C@H]3CC[C@]12C [Testosterone Acetate] | – | – | – | – | – | – | – | – | .103 % hr | 4.62 % of the dose | .133 % hr | .048 % hr | .015 % hr | .007 % hr | .004 % hr | –
10 | C[C@]12CC[C@H]3[C@@H](CCC4=CC(=O)CC[C@@]43C)[C@@H]1CC[C@@H]2C(=O)CO [Desoxycorticosterone] | 12.55 % of the dose | – | – | – | – | – | – | – | .197 % hr | – | .313 % hr | .143 % hr | .069 % hr | .035 % hr | .020 % hr | –
11 | CC1(C)O[C@@H]2C[C@H]3[C@@H]4C[C@H](F)C5=CC(=O)C=C[C@]5(C)[C@@]4(F)[C@@H](O)C[C@]3(C)[C@]2(C(=O)CO)O1 [Flucinoione Acetonide, fluocinolone acetonide] | – | .002 % hr | .011 % hr | .012 % hr | .016 % hr | .008 % hr | .005 % hr | – | – | 1.34 % of the dose | – | – | – | – | – | 1-3 % of the dose
12 | CCC(=O)O[C@H]1CC[C@H]2[C@@H]3CCC4=CC(=O)CC[C@]4(C)[C@H]3CC[C@]12C [Testosterone Propionate] | – | – | – | – | – | – | – | – | .061 % hr | 3.44 % of the dose | .096 % hr | .035 % hr | .015 % hr | .009 % hr | .005 % hr | –
13 | C[C@]12CCC(=O)C=C1CC[C@@H]1[C@@H]2C(=O)C[C@@]2(C)[C@H]1CC[C@]2(O)C(=O)CO [Cortisone] | – | – | – | – | – | – | – | – | .015 % hr | 3.38 % of the dose | .037 % hr | .039 % hr | .036 % hr | .032 % hr | .024 % hr | 1-3 % of the dose
14 | C[C@]12CC[C@H]3[C@@H](CCC4=CC(=O)CC[C@@]43C)[C@@H]1CC[C@@H]2O [Testosterone] | – | – | – | – | – | – | – | – | .147 % hr | 13.24 % of the dose | .364 % hr | .156 % hr | .066 % hr | .036 % hr | .018 % hr | –
15 | C[C@]12CCC(=O)C=C1CC[C@@H]1[C@@H]2CC[C@@]2(C)[C@H]1CC[C@]2(O)C(=O)CO [17-OII DOC] | – | .041 % hr | .101 % hr | .084 % hr | .076 % hr | .062 % hr | .065 % hr | – | – | 8.41 % of the dose | – | – | – | – | – | –
16 | C[C@]12CCC(=O)C=C1CC[C@@H]1[C@@H]2[C@@H](O)C[C@@]2(C)[C@H]1CC[C@]2(O)C(=O)CO [Hydrocortisone] | 1.87 % of the dose | .005 % hr | .023 % hr | .019 % hr | .018 % hr | .016 % hr | .010 % hr | 1-3 % of the dose | – | – | – | – | – | – | – | –
